Assay [1] addresses T1, récepteur chimère Gal-PPARγ (LBD) (Homo sapiens, UniProt P37231).
T1 construct: le récepteur chimère Gal-PPARγ (LBD); Gal (fusion partner); expressed in transfected cells; host or cells: HeLa cells, stably transfected
T1 sequence (P37231 238-503 limits assumed): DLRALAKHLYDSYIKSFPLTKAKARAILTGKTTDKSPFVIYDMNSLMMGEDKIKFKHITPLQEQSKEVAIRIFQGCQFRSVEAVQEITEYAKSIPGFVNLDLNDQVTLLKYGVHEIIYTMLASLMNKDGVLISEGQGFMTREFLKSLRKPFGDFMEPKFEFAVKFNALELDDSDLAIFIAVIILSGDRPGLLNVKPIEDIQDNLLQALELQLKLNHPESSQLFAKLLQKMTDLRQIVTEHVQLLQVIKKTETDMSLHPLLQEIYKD
Kind of assay: Transactivation test, Hela cells stably transfected with chimeric receptor Gal-PPARγ (LBD), luciferase readout. The assay is classed as cell-based. The note with it: M-HeLa, 24 h, compound at 1 microM, percent of activation relative to reference agonist at 1 µM, read-out: % d'activation (à 1 microM) PPARγ. The protocol:
L'activité agoniste vis à vis des récepteurs PPARγ des composés selon l'invention peut être évaluée par des tests de transactivation.
(§1) La capacité des molécules à activer et/ou inhiber les récepteurs PPARγ est évaluée à partir de cellules Hela transfectées de manière stable avec le récepteur chimère Gal-PPARγ (LBD).
(§2) Des plaques 96 puits sont ensemencées à raison de 10 000 cellules /100 µl / puit dans du milieu DMEM 10% SDL puis placées 24 heures à 37°C, 7% CO2.
(§3) Pour déterminer l'activité agoniste PPARγ, les cellules sont ensuite traitées par ajout de 5 µl puit des molécules à tester à la concentration finale de 1 µM. Des cellules sont également traitées en parallèle avec un agoniste de référence, l'acide (-)-3-{4-[2-(Benzooxazol-2-yl-methyl-amino)-ethoxy]-phenyl}-2-ethoxy-propionique, 1 µM.
(§4) Après une nouvelle incubation de 24 heures à 37°C, 7% CO2, un dosage de la luciférase est effectué à l'aide du kit « Steady-Glo Luciferase Assay System » de Promega. Le comptage de la luminescence se fait sur un lecteur de microplaque Microbéta Trilux (Wallac).
(§5) L'activité agoniste du produit testé sera exprimée en pourcentage d'activation par rapport au témoin agoniste l'agoniste de référence à 1 µM.
(§6) L'AC50, exprimée en nM, est déterminée comme la concentration permettant d'obtenir 50% d'activation du signal basal par rapport à l'agoniste de référence.

Assay [2] concerns the target T2, récepteur chimère Gal-PPARα (Homo sapiens, UniProt Q07869).
T2 sequence (Q07869 167-468): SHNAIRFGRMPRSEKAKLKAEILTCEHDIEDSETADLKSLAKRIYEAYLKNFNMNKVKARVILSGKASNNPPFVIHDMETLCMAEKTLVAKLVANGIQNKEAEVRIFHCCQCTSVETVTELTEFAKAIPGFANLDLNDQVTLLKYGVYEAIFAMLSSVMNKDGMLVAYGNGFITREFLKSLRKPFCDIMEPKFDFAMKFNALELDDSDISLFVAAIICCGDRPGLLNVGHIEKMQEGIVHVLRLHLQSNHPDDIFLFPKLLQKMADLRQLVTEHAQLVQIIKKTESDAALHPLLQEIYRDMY
Kind of assay: Transactivation test, same protocol with chimeric receptor Gal-PPARα. In kind it is cell-based. The note with it: Hela cells; for activation at 1 µM: 24 h, compound at 1 microM, percent of activation relative to reference agonist (Wy 14643 = 100%), read-out: % d'activation (à 1 microM) PPARα; for AC50: concentration giving 50% activation relative to reference agonist, read-out: AC50 (en nM) PPARα.
From the text: De préférence, l'activateur des récepteurs de type PPARγ est spécifique, c'est à dire qu'il présente un rapport du pourcentage d'activation des récepteurs PPARγ, au pourcentage d'activation des récepteurs PPARα (calculé par rapport à un composé de référence, le Wy 14643, activant les PPARα de 100%) supérieur ou égal à 3. De préférence, ce rapport est supérieur ou égal à 5 et plus avantageusement supérieur ou égal à 10.
as §1, §2, §3, §4, §5
En appliquant ce même protocole avec le récepteur chimère Gal-PPARα, on peut mesurer l'activité agoniste des composés vis à vis des récepteurs PPAR alpha et ainsi la comparer avec celui du récepteur PPARγ.
as §6

This note sets out measurements from EP1458697B1, “BIPHENYLMETHYL-THIAZOLIDINEDIONES AND ANALOGUES AND THEIR USE AS PPAR-GAMMA ACTIVATORS” (Galderma Research & Development, S.N.C., priority 2001, dated 2003).

For `CN(Cc1cccc(-c2ccc(CC3SC(=O)NC3=O)cc2)c1)C(=O)c1cc2ccccc2s1` (stereo not drawn) [Composé de l'exemple 11, N-[4'-(2,4-dioxo-thiazolidin-5-ylmethyl)-biphenyl-3-ylmethyl]-N-methyl-benzo[b]thiophene-2-carboxamide], in assay [1], the activation at 1 µM was 90.1%. For the same compound, in assay [2], the activation at 1 µM amounted to 13.2% and the AC50 (as a rule, the concentration at which the activity in the assay is half-maximal) is over 50000 nM.
On to `CN(Cc1cccc(-c2ccc(CC3SC(=O)NC3=O)cc2)c1)C(=O)c1ccc(N(C)C)c2ccccc12` (stereo not drawn) [Composé de l'exemple 13, 4-Dimethylamino-N-[4'-(2,4-dioxo-thiazolidin-5-ylmethyl)-biphenyl-3-ylmethyl]-N-methyl-naphthalene-1-carboxamide], for which the activation at 1 µM in assay [1] stood at 112%. Further, in assay [2], the activation at 1 µM is 13.4% and the AC50 was over 50000 nM.
For `CN(Cc1cccc(-c2ccc(CC3SC(=O)NC3=O)cc2)c1)C(=O)c1ccc(C(=O)c2ccccc2)cc1` (stereo not drawn) [Composé de l'exemple 15, N-[4'-(2,4-Dioxo-thiazolidin-5-ylmethyl)-biphenyl-3-ylmethyl]-N-methyl-4-(1-phenyl-methanoyl)-benzamide], in that order: 102%, 28.8% and over 50000 nM.
